Tests used:
[1] = Defoaming of foam generated from aqueous 0.2% sodium lauryl sulfate solution in measuring cylinders; type: physicochemical; settings: three minutes after addition of 1 mL aliquot of defoaming agent to 0.2% SLS foam
Experimental: Three aqueous solutions of 0.2% sodium lauryl sulfate were prepared in 250 mL measuring cylinders by diluting 5 g of a 2% sodium lauryl sulfate stock solution with water to give a total volume of 50 mL. The solutions were agitated by swirling the measuring cylinders 12 times to generate foam. The volumes of foam generated were recorded. A 1 mL aliquot of defoaming agent was then added to each of the solutions at a rate of 0.01 mL/s. The defoaming agents investigated were benzyl alcohol, methanol, and water. Three minutes after the addition of the defoaming agent, the volumes of foam present in each vessel were recorded.

[2] = Time taken to defoam (batch to settle) under vacuum during manufacture of oral care composition; settings: composition B (0.3% benzyl alcohol) versus comparative composition A, 4 kg batch
Experimental: The compositions were manufactured as follows: • 1. The sorbitol was added to an SS vessel having a stirrer. The stirrer was started. The sorbitol was heated to 60-62° C. • 2. Half of the purified water was added to the SS vessel. • 3. The copolymer of methyl vinyl ether and maleic acid was added to the SS vessel and mixed. Mixing was continued until the copolymer of methyl vinyl ether and maleic acid was fully dispersed. • 4. The NaOH (50% solution) was added to the SS vessel and mixed for 5 minutes. • 5. The remaining purified water was added to the SS vessel. • 6. […] The pre-mix was added to the SS vessel. • 7. The resulting gel was mixed for 20 minutes at a temperature of 64-67° C. • 8. The gel was transferred to a mixer. The thickener silica was added to the mixer and mixed for 5 minutes. The mixer used in the present experiment was an Alpro mixer. • 9. The abrasive silica and titanium dioxide were added to the mixer and mixed under vacuum. Mixing was continued until the temperature reached 46° C. • 10. At 46° C., the flavor, triclosan and sodium lauryl sulfate granules were added to the mixture. If used, benzyl alcohol was also added at this stage. • 11. The resulting mixture was then stirred for 2 minutes. Vacuum was then applied. The time taken for the batch to settle was observed. • 12. After allowing the batch to settle, mixing was continued for a further 8 minutes. […]

| Compound | % reduction in foam after addition of defoaming agent [1] [%] | reduction of the defoaming time [2] [%] | reduction of the defoaming time ([2]; listed as benzyl alcohol) |
| --- | --- | --- | --- |
| OCc1ccccc1 [Benzyl alcohol, benzyl alcohol] | 59.1 | 50 | about 50% |
| CO [Methanol, methanol, reference compound] | 74.5 | – | – |
